Here are results for four compounds from patent publication US20100093700A1, “Methods of Treating Mood Disorders” (priority 2007, published 2010).

The term inhibition denotes the share of the control response that was lost under treatment. A lower inhibition goes with a weak effect. As a reminder, the bioavailability is the share of a dose that reaches the circulation, judged against a reference dose that is usually intravenous. A lower bioavailability goes with poor availability.

In data set [1] the test system is immobility. Description: Tail suspension test. It counts as in vivo, mice. Particulars: for reduction of immobility relative to vehicle control group: p<0.01. The method, then:
In a first experiment, mice (n−10/group) were treated with vehicle, 2.0, 5.0, or 10.0 mg/kg of 11-piperazin-1-yldibenzo[b,f][1,4]thiazepine s.c. 15 minutes prior to the test session. Mice were suspended from their tails for 7 minutes. During the last 5 minutes of the test, the duration of immobility was recorded. In a second experiment, mice (n=10/group) were treated with vehicle, 30 mg/kg 11-piperazin-1-yldibenzo[b,f][1,4]thiazepine, or 30 mg/kg fluoxetine p.o. 60 minutes prior to the test session. Mice were suspended from their tails for 7 minutes. During the last 5 minutes of the test, the duration of immobility was recorded.

In the next data set the test system is apomorphine climbing. Nature of the data set: Standard apomorphine climbing mouse assay. It counts as in vivo. The settings on record: mice, p.o. The source says:
(§1) An assessment of dopamine antagonism was made in rodent models.

In data set [2] the target is brain serotonin 5-HT2 receptor (UniProt P14842). Description: In-vitro binding, brain serotonin 5-HT2 receptor. Particulars: dihydrochloride salt; read-out: binding affinity for brain serotonin 5-HT2 receptor (K1).
The next data set deals with T1, dopamine D2 receptor (Rattus norvegicus, UniProt P61169).
T1 construct: relative to dopamine (D2) receptors in the brain; from tissue; host or cells: brain
T1 sequence (P61169 whole entry): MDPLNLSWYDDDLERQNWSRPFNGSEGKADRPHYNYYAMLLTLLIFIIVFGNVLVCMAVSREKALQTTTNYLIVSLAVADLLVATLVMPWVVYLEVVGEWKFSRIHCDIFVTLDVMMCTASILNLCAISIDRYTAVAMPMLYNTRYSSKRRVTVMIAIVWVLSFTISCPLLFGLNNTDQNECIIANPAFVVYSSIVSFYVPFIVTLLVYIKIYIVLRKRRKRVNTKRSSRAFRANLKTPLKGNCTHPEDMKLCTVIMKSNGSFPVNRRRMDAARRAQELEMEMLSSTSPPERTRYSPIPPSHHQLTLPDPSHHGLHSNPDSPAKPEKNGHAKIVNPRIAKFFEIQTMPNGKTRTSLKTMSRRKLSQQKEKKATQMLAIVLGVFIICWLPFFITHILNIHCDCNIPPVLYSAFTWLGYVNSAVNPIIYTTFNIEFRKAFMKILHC
Nature of the data set: In-vitro binding, dopamine D2 receptor. The settings on record: dihydrochloride salt; read-out: binding affinity for dopamine D2 receptor (K1).

The target in another data set is T2, dopamine D1 receptor (Rattus norvegicus, UniProt P18901).
T2 construct: from tissue; host or cells: brain
T2 sequence (P18901 whole entry): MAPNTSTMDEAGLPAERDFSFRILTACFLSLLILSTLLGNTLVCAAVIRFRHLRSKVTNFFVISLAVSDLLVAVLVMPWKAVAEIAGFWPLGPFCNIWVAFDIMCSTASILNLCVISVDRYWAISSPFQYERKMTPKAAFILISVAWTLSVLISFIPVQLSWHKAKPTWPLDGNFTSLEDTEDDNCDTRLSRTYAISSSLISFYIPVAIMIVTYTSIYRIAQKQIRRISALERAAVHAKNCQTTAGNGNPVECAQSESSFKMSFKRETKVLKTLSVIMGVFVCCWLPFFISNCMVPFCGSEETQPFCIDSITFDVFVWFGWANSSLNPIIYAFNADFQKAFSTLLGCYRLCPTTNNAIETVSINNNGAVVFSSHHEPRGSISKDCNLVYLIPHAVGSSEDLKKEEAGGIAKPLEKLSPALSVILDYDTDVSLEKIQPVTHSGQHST
Nature of the data set: In-vitro binding, dopamine D1 receptor. Particulars: dihydrochloride salt; read-out: binding affinity for dopamine D1 receptor (K1).

A further data set deals with T3, Adrenergic α1B (Rattus norvegicus, UniProt P15823).
T3 construct: 203200
T3 sequence (P15823 whole entry): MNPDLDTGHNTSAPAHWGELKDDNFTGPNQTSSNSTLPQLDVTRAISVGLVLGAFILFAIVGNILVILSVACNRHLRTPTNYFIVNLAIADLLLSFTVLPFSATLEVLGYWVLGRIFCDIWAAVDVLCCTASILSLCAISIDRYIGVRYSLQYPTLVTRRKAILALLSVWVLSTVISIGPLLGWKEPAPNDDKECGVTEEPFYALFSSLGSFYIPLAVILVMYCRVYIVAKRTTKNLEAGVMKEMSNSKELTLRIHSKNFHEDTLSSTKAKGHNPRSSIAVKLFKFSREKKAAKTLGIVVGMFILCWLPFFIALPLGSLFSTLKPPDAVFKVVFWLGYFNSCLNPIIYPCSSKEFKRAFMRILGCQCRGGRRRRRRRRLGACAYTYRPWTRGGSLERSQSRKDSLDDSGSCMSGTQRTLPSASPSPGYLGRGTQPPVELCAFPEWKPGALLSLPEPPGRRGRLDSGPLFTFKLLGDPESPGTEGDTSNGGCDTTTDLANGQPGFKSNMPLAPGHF
Nature of the data set: Radioligand binding 203200 Adrenergic α1B. The source says: (§2) Receptor binding methods, α-adrenergic subtype specific, are provided below.

The next data set concerns the target Adrenergic α2C (Homo sapiens, UniProt P18825). Description: Radioligand binding Adrenergic α2C. The settings on record: hum.
The subject of data set [3] is Adrenergic α2* Non-Selective. Description: Radioligand binding 203900 Adrenergic α2 Non-Selective. The settings on record: rat. The source says: (§3) Receptor binding methods, α-adrenergic nonselective, are provided below.
Another data set has as its target T4, Adrenergic α1D (Homo sapiens, UniProt P25100).
T4 construct: host or cells: HEK-293
Description: Radioligand binding 203400 Adrenergic α1D. Particulars: hum.
Text: as §2

In the next data set the target is Uptake, Norepinephrine (Homo sapiens, UniProt P23975). Nature of the data set: Functional assay measuring norepinephrine uptake. The class given is cell-based. Particulars: [3H]Norepinephrine uptake, MDCK cells; read-out: EC50/IC50. The method, then: The following examples set forth parameters for the functional assay measuring norepinephrine uptake that was carried out.

The target of the next data set is T5, Adrenergic α1A (Rattus norvegicus, UniProt P43140).
T5 construct: 203100
T5 sequence (P43140 whole entry): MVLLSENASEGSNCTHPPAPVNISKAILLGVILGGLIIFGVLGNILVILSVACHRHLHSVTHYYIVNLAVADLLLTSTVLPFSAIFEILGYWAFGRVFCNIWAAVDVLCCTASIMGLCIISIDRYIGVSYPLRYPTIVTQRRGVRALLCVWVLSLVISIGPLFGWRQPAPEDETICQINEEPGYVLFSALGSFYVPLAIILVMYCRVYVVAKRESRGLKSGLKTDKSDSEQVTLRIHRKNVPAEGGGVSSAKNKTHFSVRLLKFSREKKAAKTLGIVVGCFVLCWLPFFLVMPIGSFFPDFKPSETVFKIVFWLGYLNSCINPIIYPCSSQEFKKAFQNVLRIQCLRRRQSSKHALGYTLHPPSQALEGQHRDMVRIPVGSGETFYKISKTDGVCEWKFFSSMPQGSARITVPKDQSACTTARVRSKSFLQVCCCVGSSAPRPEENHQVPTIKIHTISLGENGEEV
Nature of the data set: Radioligand binding 203100 Adrenergic α1A.
Text: as §2

Data set [4] deals with Transporter, Norepinephrine (NET) (Homo sapiens, UniProt P23975). Nature of the data set: Radioligand binding assay, norepinephrine transporter. The method, then: The following examples set forth parameters for the radioligand binding assay that was carried out.
The nature of another data set: Brain exposure in rats. Particulars: one hour after 30 μmol/kg po. The class given is in vivo. The method, then:
Brain exposure was measured in rats. For concentrations of 11-piperazin-1-yldibenzo[b,f][1,4]thiazepine in brain, rats were dosed either po or iv (n=3 per dose route). At one hour after compound administration, blood and brain samples were obtained and then processed for analysis using HPLC/MS to measure concentrations of 11-piperazin-1-yldibenzo[b,f][1,4]thiazepine.

The subject of data set [5] is Adrenergic α1* Non-Selective. Description: Radioligand binding 203500 Adrenergic α1 Non-Selective. Particulars: rat.
Text: as §3

The next data set addresses T6, D1 receptors (Homo sapiens, UniProt P21728).
T6 construct: from tissue; host or cells: brain of living primates (PET)
Nature of the data set: PET scans of primate subjects, D1. It counts as in vivo. Particulars: preliminary PET. The source says: (§4) The compound of Formula I is a dibenzothiazepine that has shown antidopaminergic activity.

In another data set the target is Adrenergic α2A (Homo sapiens, UniProt P08913). Description: Radioligand binding Adrenergic α2A. The settings on record: hum.
Data set [6] is described as follows: Oral bioavailability in monkeys. The class given is in vivo. Particulars: cynomolgus monkey, plasma.
Data set [7] deals with immobility. Description: Mouse forced swim test (FST). The class given is in vivo. Particulars: 15 minutes prior. As for the experimental part: The mouse forced swim test (FST) has been used to assess antidepressant potential of novel compounds (Porsolt; Lucki). Methods: Mice were placed in cylinders of water (25.0° C.±1.5° C.) for 6 minutes. The amount of immobility was quantified during the last 4 min of each session. The experimental observer was blind to the treatment conditions. […] Imipramine 45.0 mg/kg and citalopram 15.0 mg/kg were measured as the salt and administered ip 60 minutes prior to the behavioral session.

Data set [8] relates to D-amphetamine locomotor activity. Nature of the data set: D-amphetamine locomotor activity test. The class given is in vivo, rat. The settings on record: rats, s.c., freebase.
Text: as §1

The target in a further data set is T7, 5-HT2A receptors (Homo sapiens, UniProt P28223).
T7 construct: from tissue; host or cells: brain of living primates (PET)
Description: PET scans of primate subjects, 5-HT2A. It counts as in vivo. The settings on record: preliminary PET.
Text: as §4

A further data set deals with D2 receptors (Homo sapiens, UniProt P14416). Nature of the data set: PET scans of primate subjects, D2. The class given is in vivo. The settings on record: preliminary PET.
Sequence of D2 receptors (P14416 whole entry): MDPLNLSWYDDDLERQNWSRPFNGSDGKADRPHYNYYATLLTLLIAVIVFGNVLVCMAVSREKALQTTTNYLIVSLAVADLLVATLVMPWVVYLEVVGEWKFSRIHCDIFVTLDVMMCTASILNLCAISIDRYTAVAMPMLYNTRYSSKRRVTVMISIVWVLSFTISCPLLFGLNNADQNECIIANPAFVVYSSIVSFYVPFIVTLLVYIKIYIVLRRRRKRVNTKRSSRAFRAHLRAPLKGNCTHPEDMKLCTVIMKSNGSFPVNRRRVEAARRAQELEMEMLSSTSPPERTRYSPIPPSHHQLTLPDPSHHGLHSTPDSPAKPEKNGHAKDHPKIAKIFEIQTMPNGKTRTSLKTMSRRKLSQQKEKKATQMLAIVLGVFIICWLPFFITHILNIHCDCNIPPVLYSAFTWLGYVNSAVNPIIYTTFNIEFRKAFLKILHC
A short description of data set [9]: Oral bioavailability in dogs. The class given is in vivo. The settings on record: dog, plasma, Beagle dogs.
Another data set deals with T8, 5HT Transporter (Homo sapiens, UniProt P31645).
T8 construct: from tissue; host or cells: brain of living primates (PET)
T8 sequence (P31645 whole entry, species assumed): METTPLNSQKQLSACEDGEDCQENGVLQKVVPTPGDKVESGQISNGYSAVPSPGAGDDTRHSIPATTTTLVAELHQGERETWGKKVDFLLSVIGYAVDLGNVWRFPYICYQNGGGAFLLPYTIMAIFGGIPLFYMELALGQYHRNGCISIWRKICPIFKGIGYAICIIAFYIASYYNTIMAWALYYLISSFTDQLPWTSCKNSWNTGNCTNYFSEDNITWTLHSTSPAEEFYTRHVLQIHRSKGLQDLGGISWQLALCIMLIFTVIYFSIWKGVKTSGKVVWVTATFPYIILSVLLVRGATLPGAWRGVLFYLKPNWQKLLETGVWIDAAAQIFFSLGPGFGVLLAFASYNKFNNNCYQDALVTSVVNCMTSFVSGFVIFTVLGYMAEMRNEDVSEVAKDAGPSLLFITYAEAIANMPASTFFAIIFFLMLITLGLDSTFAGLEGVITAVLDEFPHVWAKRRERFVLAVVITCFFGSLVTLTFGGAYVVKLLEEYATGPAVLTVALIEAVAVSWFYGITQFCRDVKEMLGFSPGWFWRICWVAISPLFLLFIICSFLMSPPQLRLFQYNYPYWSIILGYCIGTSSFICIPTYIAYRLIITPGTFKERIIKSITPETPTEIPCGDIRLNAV
Nature of the data set: PET scans of primate subjects, 5HT Transporter. It counts as in vivo. Particulars: preliminary PET.
Text: as §4

Another data set deals with Adrenergic α2B (Homo sapiens, UniProt P18089). Description: Radioligand binding Adrenergic α2B. The settings on record: hum.
Sequence of Adrenergic α2B (P18089 whole entry): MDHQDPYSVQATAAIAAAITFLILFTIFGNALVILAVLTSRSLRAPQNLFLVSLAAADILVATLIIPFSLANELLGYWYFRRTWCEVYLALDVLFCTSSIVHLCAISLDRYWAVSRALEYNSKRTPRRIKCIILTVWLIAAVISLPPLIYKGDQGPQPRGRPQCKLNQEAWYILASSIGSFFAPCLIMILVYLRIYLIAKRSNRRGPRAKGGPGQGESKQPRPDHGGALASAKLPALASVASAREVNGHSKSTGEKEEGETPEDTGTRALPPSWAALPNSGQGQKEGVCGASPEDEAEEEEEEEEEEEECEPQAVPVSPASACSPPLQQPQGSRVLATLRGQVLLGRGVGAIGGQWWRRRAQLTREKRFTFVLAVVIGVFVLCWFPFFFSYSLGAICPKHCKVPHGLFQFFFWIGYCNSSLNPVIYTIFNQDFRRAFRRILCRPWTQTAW
Another data set has as its target T9, 5-HT1A receptors (Homo sapiens, UniProt P08908).
T9 construct: from tissue; host or cells: brain of living primates (PET)
Nature of the data set: PET scans of primate subjects, 5-HT1A. Particulars: preliminary PET. It counts as in vivo.
Text: as §4

The mark [10] stands for this setting: 30 mg/kg p.o., 60 minutes prior.

T9 sequence (P08908 whole entry): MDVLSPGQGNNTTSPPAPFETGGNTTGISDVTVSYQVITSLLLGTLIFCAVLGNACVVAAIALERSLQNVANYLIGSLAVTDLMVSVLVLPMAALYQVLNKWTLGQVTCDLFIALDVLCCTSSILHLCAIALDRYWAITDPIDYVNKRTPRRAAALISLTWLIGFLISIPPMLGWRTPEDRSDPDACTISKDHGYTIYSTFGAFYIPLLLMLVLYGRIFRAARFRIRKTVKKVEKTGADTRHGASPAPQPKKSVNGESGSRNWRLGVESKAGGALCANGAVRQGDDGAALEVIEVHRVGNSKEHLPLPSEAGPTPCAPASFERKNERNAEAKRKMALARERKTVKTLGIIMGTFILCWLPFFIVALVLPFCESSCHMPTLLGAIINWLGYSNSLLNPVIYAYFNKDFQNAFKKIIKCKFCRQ
T4 sequence (P25100 whole entry): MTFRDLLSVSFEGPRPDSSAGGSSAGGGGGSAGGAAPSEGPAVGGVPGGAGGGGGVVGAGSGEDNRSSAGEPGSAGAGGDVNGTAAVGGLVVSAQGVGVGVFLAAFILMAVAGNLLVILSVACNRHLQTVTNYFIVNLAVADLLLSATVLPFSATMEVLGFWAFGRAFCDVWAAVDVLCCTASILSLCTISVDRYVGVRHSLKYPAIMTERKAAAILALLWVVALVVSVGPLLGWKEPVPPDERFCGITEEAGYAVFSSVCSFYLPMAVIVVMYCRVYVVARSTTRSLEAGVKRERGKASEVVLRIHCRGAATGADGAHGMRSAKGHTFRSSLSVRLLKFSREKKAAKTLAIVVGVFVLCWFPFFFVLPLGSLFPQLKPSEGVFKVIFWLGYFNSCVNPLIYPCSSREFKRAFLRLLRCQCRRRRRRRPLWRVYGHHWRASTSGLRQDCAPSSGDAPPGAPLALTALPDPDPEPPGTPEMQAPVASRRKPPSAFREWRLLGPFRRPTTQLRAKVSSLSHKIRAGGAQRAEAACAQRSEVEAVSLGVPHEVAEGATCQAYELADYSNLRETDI
Sequence of Adrenergic α2C (P18825 whole entry): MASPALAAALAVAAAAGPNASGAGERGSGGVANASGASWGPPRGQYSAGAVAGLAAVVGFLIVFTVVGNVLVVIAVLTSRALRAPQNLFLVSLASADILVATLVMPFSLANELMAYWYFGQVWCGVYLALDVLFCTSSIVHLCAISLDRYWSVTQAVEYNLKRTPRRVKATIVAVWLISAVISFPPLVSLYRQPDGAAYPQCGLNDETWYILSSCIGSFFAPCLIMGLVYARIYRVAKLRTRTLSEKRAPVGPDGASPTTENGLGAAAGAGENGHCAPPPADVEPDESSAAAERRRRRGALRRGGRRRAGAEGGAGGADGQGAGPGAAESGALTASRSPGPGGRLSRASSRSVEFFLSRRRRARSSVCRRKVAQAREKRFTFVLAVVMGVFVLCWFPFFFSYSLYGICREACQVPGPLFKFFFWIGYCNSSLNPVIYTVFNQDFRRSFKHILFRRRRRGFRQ

Turning to `CNCCC(Oc1ccc(C(F)(F)F)cc1)c1ccccc1` (centres unmarked) [fluoxetine, reference compound], the “reduction of immobility relative to vehicle control group” value with immobility [1] (setting [10]) was “more than ½”.

As to `Cl.Cl.c1ccc2c(c1)N=C(N1CCNCC1)c1ccccc1S2` [11-piperazin-1-yldibenzo[b,f][1,4]thiazepine, dihydrochloride salt], the “in vivo antipsychotic activity, apomorphine mouse assay” value in the data set on apomorphine climbing is “not found to be efficacious”. Further, the Ki in data set [2] turned out to be 0.027 µM; on dopamine D2 receptor it was 0.234 µM; at dopamine D1 receptor, 1.49 µM.

As to `c1ccc2c(c1)N=C(N1CCNCC1)c1ccccc1S2` [11-piperazin-1-yldibenzo[b,f][1,4]thiazepine], the “n (Hill coefficient)” value at Adrenergic α1B was 1.1 ± 0.024; on Adrenergic α2C it was 1.1 ± 0.079; on Adrenergic α1D, 0.984 ± 0.111; at Adrenergic α1A, 1.03 ± 0.089; at Adrenergic α2A it was 0.969 ± 0.012; at Adrenergic α2B, 0.902 ± 0.055. In addition, the “reduction of immobility relative to vehicle control group” value in the data set on immobility [1] (10.0 mg/kg s.c.) and with immobility [1] (setting [10]) was “more than ½” throughout. Moreover, the “effect on duration of immobility” value in the data set with immobility [1] (2.0, 5.0 or 10.0 mg/kg s.c., 15 minutes prior) is “reduced immobility at all doses tested”. For the same compound, the “in vivo antipsychotic activity, apomorphine mouse assay” value in the data set with apomorphine climbing is “not shown to be efficacious”. For the same compound, the “% INH.” value in data set [3] (10 μM) stood at 73%; in [5] (0.1 μM), 61%. The IC50 worked out at 1.41 µM in data set [3]; 0.0134 µM on Uptake, Norepinephrine; 0.0693 µM in data set [5]. The figures for the Ki in data set [3] and in data set [5] were 1.29 µM and 0.0372 µM, respectively. Besides, the inhibition at 10 µM in data set [4] stood at 97%. Besides, the “average concentration in brain tissue” value in the data set “Brain exposure in rats” was 2240 nmol/g. In addition, the “receptor occupancy (PET), D1” value on D1 receptors is reported as “occupies”. The bioavailability in data set [6] was found to be 37%; in [9], 42%. Besides, in the data set with immobility [7] (10.0 mg/kg sc), the “effect on immobility in FST” value was “antidepressant effects in this assay comparable to imipramine”. Besides, the “in vivo antipsychotic activity, D-amphetamine locomotor activity test” value in data set [8] was “not found to be efficacious”; in data set [8] (listed as Formula I) it was “not shown to be efficacious”. Also, the “receptor occupancy (PET), 5-HT2A” value on 5-HT2A receptors is listed as “occupies”. Besides, the “receptor occupancy (PET), D2” value on D2 receptors is “occupies”. For the same compound, the “occupancy (PET), 5HT Transporter” value on 5HT Transporter is “occupies”. Also, the “receptor occupancy (PET), 5-HT1A” value at 5-HT1A receptors is recorded as “occupies”.

Regarding `OCCOCCN1CCN(C2=Nc3ccccc3Sc3ccccc32)CC1` [Quetiapine, quetiapine, reference compound], in the data set with immobility [7] (5.0, 10.0 and 20.0 mg/kg sc), the “effect on immobility in FST” value is “no effect”.
